In ChEMBL document CHEMBL1124282, “Synthesis of fluorescent muramyl dipeptide congeners. 2” (1988):

Experiments:
Cavia porcellus [1] = organism: Cavia porcellus; assay: Antibody response to the compound was determined in guinea pigs; type: functional
Cavia porcellus [2] = organism: Cavia porcellus; assay: Adjuvant activity was determined by the ability of compound to stimulate delayed hypersensitivity by intradermal injection of 10 ug of ovalbumin after 48 hr in guinea pigs; type: functional

Row | SMILES | Antibody response (Cavia porcellus [1]) | DTH (Cavia porcellus [2])
1 | COc1ccc2c(c1)Oc1cc(O)ccc1/C2=C1C=C/C(=N/c2nc(O)nc(NCCCC[C@H](NC(=O)[C@@H](C)OC3C(O)C(CO)OC(O)C3NC(C)=O)C(=O)N[C@H](CCC(=O)O)C(N)=O)n2)C=C\1C(=O)O (stereo partly drawn) | 17.6 | 2.9
2 | COc1ccc2c(c1)Oc1cc(O)ccc1/C2=C1C=C/C(=N/c2nc(O)nc(NCCCC[C@H](NC(=O)CC[C@@H](NC(=O)[C@H](C)NC(=O)[C@@H](C)OC3C(O)C(CO)OC(O)C3NC(C)=O)C(N)=O)C(=O)O)n2)C=C\1C(=O)O (stereo partly drawn) | 192 | 20.2
3 | COc1ccc2c(c1)Oc1cc(O)ccc1/C2=C1C=C/C(=N/c2nc(O)nc(OCC3OC(O)C(NC(C)=O)C(O[C@H](C)C(=O)N[C@@H](C)C(=O)N[C@H](CCC(=O)O)C(N)=O)C3O)n2)C=C\1C(=O)O (stereo partly drawn) | 123.34 | 11.5
4 | CC(=O)N[C@H]1C(O)O[C@H](CO)[C@@H](O)[C@@H]1O[C@H](C)C(=O)N[C@@H](C)C(=O)N[C@H](CCC(=O)O)C(N)=O (stereo partly drawn) [MURAMYL DIPEPTIDE] | 82.49 | 10.6
